# Measured values: patent publication US20200163984A1, “USE OF ISOVALERYL SPIRAMYCIN I, II AND/OR III IN MANUFACTURING MEDICAMENT FOR TREATING AND/OR PREVENTING TUMOR, AND MEDICAMENT” (SHENYANG FUYANG PHARMACEUTICAL TECHNOLOGY CO., LTD., priority 2017, published 2020)
# Assays:
# [1] = system: transplanted tumor of human glioma cell U251; experiment: U251 transplanted tumor in nude mice; settings: for Tumor Volume (mm3) (d 1): d1
# Protocol: U251 cells in a logarithmic growth phase were taken and subjected to a trypan blue exclusion experiment showing that the cell viability was more than 95%, then the cells were subjected to trypsinization, centrifugation, and supernatant removal. Then cell concentration was adjusted to 1×10^7/ml with matrigel, then each nude mouse was inoculated subcutaneously with 0.2 ml of cells at its right armpit and recorded as the first day of inoculation. When the tumor grows to be greater than or equal to 100 mm^3, the mice were randomly divided into 11 groups with 6 mice in each group: a model group, a cyclophosphamide group, isovaleryl spiramycin I groups with doses of 25, 50 and 100 mg/kg, isovaleryl spiramycin II groups with doses of 25, 50 and 100 mg/kg, and isovaleryl spiramycin III groups with doses of 25, 50 and 100 mg/kg. Each group was continuously administered intragastrically for 30 days with a dose of 20 ml/kg. The mice were sacrificed the next day after drug withdrawal and the indicators were tested. The long diameter and short diameter of the tumor, and the body weight of each mouse were recorded every 3 days from drug administration to nude mouse sacrifice.
# The body weight of the nude mice and the long diameter (a) and short diameter (b) of the transplanted tumor were measured every 3 days, and the tumor volume (v), relative tumor volume (RTV) and relative tumor proliferation rate (T/C) are calculated respectively according to the following formulas, wherein V=a×b^2/2; RTV=V/V0 (V0 is the tumor volume before administration, V is the tumor volume before sacrifice), and T/C (%)=treatment group RTV/model control group RTV×100%.
# Each mouse was weighed and sacrificed. After the tumor was completely stripped off from the body of the mouse, the non-tumor tissues such as blood stains and fat were removed to weigh the tumor and calculate the tumor growth inhibition rate. The average tumor weight of each group of mice is used as an indicator of efficacy. Tumor growth inhibition rate (%)=(1−the average tumor weight of the treatment group/the average tumor weight of the model group)×100%.
# [2] = Thymus index and spleen index of H22 liver cancer tumor-bearing mice
# Protocol: In the H22 liver cancer model, the mice inoculated with the tumor were randomly divided into groups with 10 mice in each group on the next day of inoculation. The groups included: a model control group, a positive drug cyclophosphamide control group (CTX, 26 mg/kg), isovaleryl spiramycin I groups with doses of 13, 26 and 52 mg/kg; isovaleryl spiramycin II groups with doses of 13, 26 and 52 mg/kg; isovaleryl spiramycin III groups with doses of 13, 26 and 52 mg/kg. Each group was continuously administered intragastrically for 7 days with a dose of 20 ml/kg.
# [3] = system: NK cell activity of spleen cells against K562 cells; experiment: Natural killer (NK) cell activity of Lewis lung cancer tumor-bearing mice; format: in vivo, C57BL/6 mouse
# Protocol: In the Lewis lung cancer model, the mice inoculated with the tumor were randomly divided into groups with 10 mice in each group the next day of inoculation. The groups included: a model control group, a positive drug cyclophosphamide control group (CTX, 30 mg/kg), isovaleryl spiramycin I groups with doses of 13, 26 and 52 mg/kg; isovaleryl spiramycin II groups with doses of 13, 26 and 52 mg/kg; isovaleryl spiramycin III groups with doses of 13, 26 and 52 mg/kg. Each group was continuously administered intragastrically for 15 days with a dose of 20 ml/kg.
# The serum-free RPMI 1640 medium was placed in a dish, and then the dish was placed on ice. The spleen was aseptically taken and gently ground with a sterile glass slide to prepare a single cell suspension. The single cell suspension was filtered with a double-layer sterile gauze, washed twice with serum-free RPMI1640 medium, and centrifuged at 1,500 rpm for 5 min to remove the obtained supernatant. 2 mL of red blood cell lysate was added to the treated suspension, the mixture was allowed to stand for 2 min, and then 8 mL of RPMI 1640 medium was added, centrifuging was performed at 1,500 rpm for 5 min to remove the obtained supernatant, and then washing was performed twice with the RPMI 1640 medium. […] A single cell suspension was prepared by using a RPMI 1640 medium containing 10% fetal bovine serum.
# The spleen cell suspension was taken, and the cell density was adjusted to 1×10^7/mL (effector cells). A suspension of K562 cells was prepared with a cell density of 1×10^5/mL (target cells). Each mouse was set with: A. effector cells:target cell well (quantity ratio 20:1) to which […] of spleen cell suspension and 100 μL of K562 cell suspension were added; B. an effector cell control well to which 100 μL of spleen cell suspension and 100 μL of RPMI 1640 medium were added; and C. a target cell control well to which 100 μL of K562 cell suspension and 100 μL of RPMI 1640 medium were added. The above cells were added to a 96-well plate. After the 96-well plate was transferred to a saturated humidity condition with a volume fraction of 5% CO2 at 37° C. for incubation for 22 h, 10 μL of MTT solution (5 g/L) was added to each well, and incubation was continued to be performed for 4 hours under the same conditions, then the culture was terminated. 100 μl of a triple solution (SDS 10 g, 10M HCl 0.1 mL, isobutanol 5 mL, diluted with distilled water to 100 mL) was added, and the plate was shaken for 10 min to fully dissolve the crystals, and the Optical Density (OD) of each well at 490 nm was measured, and the NK cell activity was calculated. NK cell activity (%)=[TO−(S−E)]/TO×100%, wherein TO is the Optical Density of the target cell control well, S is the Optical Density of the effector cell control well, and E is the Optical Density of the effector cell.
# [4] = Spleen index of A549 lung cancer tumor-bearing mice; settings: n = 6
# [5] = U251, high dose (100 mg/kg in method) i.g. 30 days
# [6] = U251, low dose (25 mg/kg in method) i.g. 30 days
# [7] = U251, medium dose (50 mg/kg in method) i.g. 30 days
smiles,measurement,setting,value
"COC1C(OC(C)=O)CC(=O)OC(C)CC=CC=CC(OC2CCC(N(C)C)C(C)O2)C(C)CC(CC=O)C1OC1OC(C)C(OC2CC(C)(O)C(OC(=O)CC(C)C)C(C)O2)C(N(C)C)C1O (stereo not drawn) [Isovaleryl spiramycin II, isovaleryl spiramycin II]",Relative Tumor Proliferation Rate (T/C),[1]; [5],43.26%
same,tumor growth inhibition rate,[1]; [5],40.26%
same,Relative Tumor Proliferation Rate (T/C),[1]; [6],76.14%
same,tumor growth inhibition rate,[1]; [6],10.91%
same,tumor volume and relative tumor volume compared with the model group,"[1]; U251, low, medium and high doses, P<0.05",significantly lower
same,Relative Tumor Proliferation Rate (T/C),[1]; [7],51.88%
same,tumor growth inhibition rate,[1]; [7],15.81%
same,Inhibition Rate (%),"[1]; U251 nude mice, 25 mg/kg",10.91%
same,Relative Tumor Proliferation Rate (T/C),"[1]; U251 nude mice, 25 mg/kg",76.14%
same,Relative Tumor Volume (RTV),"[1]; U251 nude mice, 25 mg/kg",14.73 ± 1.33
same,Tumor Weight,"[1]; U251 nude mice, 25 mg/kg",1.23 ± 0.12 g
same,Tumor Volume (mm3) (d 1),"[1]; U251 nude mice, 25 mg/kg",125.90 ± 11.45 mm3
same,Tumor Volume (mm3) (d30),"[1]; U251 nude mice, 25 mg/kg",1596.45 ± 267.65 mm3
same,Inhibition Rate (%),"[1]; U251 nude mice, 50 mg/kg",15.81%
same,Relative Tumor Proliferation Rate (T/C),"[1]; U251 nude mice, 50 mg/kg",51.88%
same,Relative Tumor Volume (RTV),"[1]; U251 nude mice, 50 mg/kg",14.31 ± 0.98
same,Tumor Weight,"[1]; U251 nude mice, 50 mg/kg",1.16 ± 0.10 g
same,Tumor Volume (mm3) (d 1),"[1]; U251 nude mice, 50 mg/kg",118.33 ± 11.65 mm3
same,Tumor Volume (mm3) (d30),"[1]; U251 nude mice, 50 mg/kg",1030.10 ± 207.19 mm3
same,Inhibition Rate (%),"[1]; U251 nude mice, 100 mg/kg",40.26%
same,Relative Tumor Proliferation Rate (T/C),"[1]; U251 nude mice, 100 mg/kg",43.26%
same,Relative Tumor Volume (RTV),"[1]; U251 nude mice, 100 mg/kg",12.88 ± 1.54
same,Tumor Weight,"[1]; U251 nude mice, 100 mg/kg",0.83 ± 0.12 g
same,Tumor Volume (mm3) (d 1),"[1]; U251 nude mice, 100 mg/kg",122.74 ± 10.75 mm3
same,Tumor Volume (mm3) (d30),"[1]; U251 nude mice, 100 mg/kg",890.78 ± 225.34 mm3
same,mouse weight compared with the model group,"[1]; mouse, in vivo",no significant changes
same,Body Weight (g) (d1),"[1]; mouse, in vivo, 25 mg/kg",20.77 ± 0.65 g
same,Body Weight (g) (d30),"[1]; mouse, in vivo, 25 mg/kg",20.85 ± 0.79 g
same,Body Weight (g) (d1),"[1]; mouse, in vivo, 50 mg/kg",21.25 ± 0.46 g
same,Body Weight (g) (d30),"[1]; mouse, in vivo, 50 mg/kg",20.86 ± 0.43 g
same,Body Weight (g) (d1),"[1]; mouse, in vivo, 100 mg/kg",20.92 ± 0.82 g
same,Body Weight (g) (d30),"[1]; mouse, in vivo, 100 mg/kg",21.47 ± 0.70 g
same,Spleen Index (%),[2]; dose 13 mg/kg,0.59 ± 0.24%
same,Thymus Index (%),[2]; dose 13 mg/kg,0.12 ± 0.05%
same,Spleen Index (%),[2]; dose 26 mg/kg,0.68 ± 0.24%
same,Thymus Index (%),[2]; dose 26 mg/kg,0.16 ± 0.03%
same,Spleen Index (%),[2]; dose 52 mg/kg,0.64 ± 0.17%
same,Thymus Index (%),[2]; dose 52 mg/kg,0.17 ± 0.10%
same,NK Cell Activity,[3]; 13 mg/kg,47.2 ± 9.2%
same,NK Cell Activity,[3]; 26 mg/kg,47.0 ± 5.5%
same,NK Cell Activity,[3]; 52 mg/kg,43.1 ± 7.3%
same,NK cell activity compared with the control group,"[3]; 13, 26 and 52 mg/kg, P<0.01",significantly increase
same,Spleen Index (%),[4]; dose 13 mg/kg,0.35 ± 0.06%
same,Spleen Index (%),[4]; dose 26 mg/kg,0.32 ± 0.09%
same,Spleen Index (%),[4]; dose 52 mg/kg,0.37 ± 0.06%
